Reference: patent publication US9676870B2, “Methods of treating atherosclerosis and aneurysm” (The Brigham and Women's Hospital, Inc., priority 2011, dated 2017)
Entries after “also recorded” stand apart in the source; their conditions may differ. Residues, ends and D or L forms follow the SMILES beside them. *: point of attachment. Cbz = O=C(OCc1ccccc1)*; CH2F = FC*

Key:
Type in all cases: cell-based
[1] = test system: mouse peritoneal macrophages; test: Mouse peritoneal macrophage IL6 / MCP-1 production (ELISA, real-time PCR)
Method: (§1) Human macrophages were prepared by differentiating Ficoll gradient-separated monocytes from human blood in RPMI with 10% human serum (Gemini Bio-Products, West Sacramento, Calif.) for 10 days on Falcon PRIMARIA™ tissue culture dishes (Becton Dickinson Labware, Franklin Lakes, N.J.) without coating. Mouse thioglycolate (3%, Sigma, St. Louis, Mo.)-stimulated peritoneal macrophages were prepared from WT C57BL/6 mice (Jackson Laboratory), Fcer1a^−/− mice (congenic C57BL/6, N>8) (21), Tlr2^−/− mice (Jackson Laboratory, N16), and […] (Jackson Laboratory, C57BL/6, N8). Cells were cultured in RPMI-1640 with 10% fetal bovine serum (FBS). Human aortic SMCs and ECs were obtained from human donor aortas and subcultured at passages 2-5 in DMEM containing 10% FBS (for SMCs), or in medium 199 containing 20% FBS (for ECs).
(§2) To detect cytokine production, cells were starved in corresponding media containing 0.5% FBS overnight, then incubated for 2 days in starvation media containing IgE (50 μg/mL for macrophages; 100 μg/mL for SMCs and ECs). Mouse poorly cytokinergic monomeric IgE H1 DNP-ε-206 (50 μg/mL) (34) and highly cytokinergic aggregated IgE SPE-7 (50 μg/mL) (Sigma) with or without LPS (100 ng/mL), ox-LDL (50 μg/mL), or DNP-HSA (10 ng/mL) were used to stimulate mouse macrophages. Human IgE was obtained from Immunology Consultants Laboratory, Inc. (Newberg, Oreg., RA-80E). […]

[2] = test system: human monocyte-derived macrophages; test: Human monocyte-derived macrophage apoptosis (TUNEL staining)
Method: as §1
(§3) To detect IgE-induced apoptosis, human and mouse macrophages and HuSMC were cultured on 8-well chamber slides, 96-well plates, or 6-well plate pre-coated with 1% gelatin. […]

[3] = test system: mouse peritoneal macrophages; test: Mouse peritoneal macrophage apoptosis / cell death (TUNEL, MTT); settings: 50-100 μM EIPA, 50 μg/mL mouse IgE (SPE-7)
Method: as §1, §3

human macrophages [4] = test: IgE-induced human macrophage cell death (MTT assay); settings: human macrophages from most donors, IgE 50 μg/mL
Method: as §1, §3

human macrophages [5] = test: IgE-induced human macrophage medium pH reduction
Method: as §1, §3

human macrophages [6] = test: IgE-induced human macrophage IL6 secretion; settings: human macrophages from most donors; IgE 50 μg/mL
Method: as §1, §2

HuSMCs = test: Cultured human aortic SMC (HuSMC) stimulation: immunoblot, cytokines, cell death; settings: IFN-γ 20 ng/mL, 50 μg lysate
Method: as §1, §2

HuECs = test: Cultured human EC (HuEC) stimulation: immunoblot, cell death; settings: IFN-γ 20 ng/mL, 50 μg lysate
Method: as §1, §2

## CCN(c1nc(N)c(C(=O)NC(=N)N)nc1Cl)C(C)C [EIPA, ethylisopropylamiloride]
[1]; 50-100 μM EIPA, 50 μg/mL mouse IgE (SPE-7)
  blocking of IgE-induced macrophage secretion of IL6: blocked significantly
[2]; 10 μM EIPA, same condition as LPS, 2-3 days, data not shown
  cell death caused by EIPA alone: did not cause any cell death
[3]
  blocking of IgE-induced macrophage apoptosis: blocked significantly
Human macrophages [4]
  blocking of IgE-induced cell death: significantly blocked
Human macrophages [5]; 10 μM EIPA, IgE 50 μg/mL
  blocking of IgE-induced medium color change and pH reduction: completely blocked
Human macrophages [5]; EIPA alone, no IgE
  pH change by EIPA treatment alone: did not change pH
Human macrophages [6]
  blocking of IgE-induced IL6 secretion: significantly blocked

## dinitrophenyl-human serum albumin [DNP-HSA]
[1]; 10 ng/mL DNP-HSA, pH, cell death and IL6 assays
  impact of antigen on SPE-7 or H1 DNP-ε-206 in macrophage activity assays: no significant impact

## COC(=O)C[C@H](NC(=O)[C@H](C)NC(=O)[C@@H](NC(=O)OCc1ccccc1)C(C)C)C(=O)CF [ZVAD-FMK] (Cbz-Val-Ala-Asp(OMe)-CH2F)
[2]; ZVAD-FMK 20 μM, IgE 50 μg/mL
  blocking of IgE-induced human macrophage apoptosis: blocked; also recorded: efficiently blocks

B1: IFN-γ: inflammatory cytokine (protein, UniProt P01579 24-161, looked up)
Interferon gamma: QDPYVKEAENLKKYFNAGHSDVADNGTLFLGILKNWKEESDRKIMQSQIVSFYFKLFKNFKDDQSIQKSVETIKEDMNVKFFNSNKKKRDDFEKLTNYSVTDLNVQRKAIHELIQVMAELSPAAKTGKRKRSQMLFRG
HuSMCs
  FcεR1α expression in SMCs: induced FcεR1α expression
HuECs
  FcεR1α expression in ECs: induced FcεR1α expression
